Assay results: paper PMC4113009, “Dihydroisoxazole inhibitors of Anopheles gambiae seminal transglutaminase AgTG3” (Malaria Journal, 2014)

What was measured:
human caspase-1 = target: T1, human caspase-1 (Homo sapiens, UniProt P29466); test: Cysteine protease inhibition assay, caspase-1 (Ac-YVAD-pNA); format: biochemical; settings: 3 at 100 μM, compared to a DMSO control, chromogenic assay
T1 construct: purchased Abcam
T1 sequence (P29466 120-297 limits assumed): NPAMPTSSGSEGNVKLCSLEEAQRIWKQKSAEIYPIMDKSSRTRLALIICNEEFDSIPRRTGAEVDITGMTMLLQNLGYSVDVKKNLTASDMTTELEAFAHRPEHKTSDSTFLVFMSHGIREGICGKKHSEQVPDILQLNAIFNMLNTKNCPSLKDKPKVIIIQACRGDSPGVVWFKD
T1 sequence (P29466 317-404 limits assumed): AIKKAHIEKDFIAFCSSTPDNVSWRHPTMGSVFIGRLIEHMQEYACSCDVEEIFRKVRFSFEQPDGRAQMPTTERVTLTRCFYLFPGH
Protocol: The activity of caspase-1 was determined by use of chromogenic substrate Ac-YVAD-pNA (Enzo Life Sciences, NY, USA). The assay was performed by adding 45 μL of 1 Unit caspase-1 (Abcam, MA, USA) and 5 μL of Ac-YVAD-pNA (final concentration, 5 μM) to 50 μL assay buffer (50 mM HEPES pH 7.4, 10 mM DTT, 1 mM EDTA, 0.1% CHAPS, 20% glycerol). Substrate cleavage after 1 h incubation at 37°C was measured by […] absorbance at 400 nm in a benchtop UV/Vis spectrophotometer (UV1800, Shimadzu, Kyoto, Japan).
Transglutaminases and cysteine proteases have a similar catalytic mechanism involving an active site cysteine and formation of a thioacyl intermediate. […] To test this hypothesis, the inhibition of two cysteine proteases, human caspase-1 and recombinant tobacco etch virus (TEV) protease by 3 at 100 μM were tested using a chromogenic and SDS-PAGE assay, respectively (Figure 9). […] Neither human caspase-1 nor TEV are endogenous proteins in A. gambiae, which may well contain other endogenous targets of 1–3, not least the two other transglutaminases in the A. gambiae genome.

AgTG3 [1] = target: T2, AgTG3 (Anopheles gambiae, UniProt D2K8K8); test: AgTG3 plugin cross-linking assay (SDS-PAGE, FITC-CAD); format: biochemical; settings: 100 μM inhibitor, 5 mM CaCl2, intensity of high MW bands
Protocol: Recombinant AgTG3 was pre-incubated with 100 μM inhibitors overnight at room temperature. AgTG3, with and without pretreatment with inhibitors (1 μg), was added to plugin-C (20 μg) and 0.5 mM FITC-cadaverine (FITC-CAD) in 25 mM HEPES, pH 7.5, 10 mM CaCl2, 1 mM DTT. The reaction was incubated at room temperature for 2 h and quenched by heat denaturation of the proteins in the presence of Laemmli buffer. The extent of cross-linking was analysed by sodium dodecyl sulphate-polyacrylamide gel electrophoresis (SDS-PAGE). The gel was scanned using Alpha Imager 2200 software.
Additional assays were performed to examine whether compounds 1 and 3 would inhibit the cross-linking of plugin-C by AgTG3 in solution, with FITC-CAD for fluorescent detection of plugin-C. Results were assessed by SDS/PAGE and UV illumination to detect FITC-CAD (Figure 7). […] In the presence of enzyme, substrate and calcium a ladder of fluorescent bands of increasing molecular weight (MW) is observed (lane 4), corresponding to cross-linked oligomers of plugin also labeled by FITC-CAD. […] However, the levels of AgTG3 in solution assays are higher in the cross-linking assay than the primary screen. The levels of plugin-C were also higher, which competes with slow-binding irreversible inhibitors such as 1 and 3 for the active site of AgTG3.
Figure 7 Inhibition of plugin cross-linking by DHI inhibitors. Fluorescent image of SDS-PAGE for FITC-cadaverine labeling and cross-linking of plugin by AgTG3. Lanes (1–4): (1) AgTG3, (2) Plugin-C, (3) AgTG3 and plugin-C, (4) AgTG3, plugin-C, and 5 mM CaCl2. Lanes (5–8): AgTG3, plugin-C, 5 mM CaCl2 and (5) 10 mM EDTA, (6) 50 mM IA, (7) 100 μM 1, (8) 100 μM 3. (below) Coomassie stain indicating relative levels of monomeric Plugin-C.

AgTG3 [2] = target: T2, AgTG3; test: Covalent modification of AgTG3 by ESI-MS and tandem MS/MS; format: binding
Protocol: Recombinant AgTG3 (20 μM) was dialyzed against HEPES buffer containing 100 mM NaCl, 10 mM CaCl2, and 5% glycerol. Inhibitors were added to a final concentration of 100 μM and incubated overnight. Samples were subsequently injected on a Waters ACQUITY Ultraperformance liquid chromatography (UPLC) system coupled to an ACQUITY UPLC Photodiode Array (PDA) λ detector. Electrospray ionization (ESI) mass spectrograms were collected in the positive ion mode and subsequently transformed for molecular weight determination using MASSLYNX software (Waters).
Samples prepared for ESI-MS (50 μL) were pretreated with 2 μL of 10 g/l trypsin (Sigma) for 1 h at 37°C. The reaction was stopped by formic acid, and the sample was submitted to the W.M. Keck Biotechnology Resource Laboratory (Yale University) for tandem MS/MS proteomics analysis. Results were further analysed using the online MassMatrix server.
DHI inhibitors form a thioether bond with the TG active site cysteine, a modification that should be detectable by mass spectrometry. […] AgTG3 was treated with 100 μM 3 overnight and the intact protein subsequently analyzed by ESI-MS (Figure 8A). The parent mass for unmodified AgTG3 was detected at m/z = 84173 Da. […] The expected m/z shift for reaction with 3 is +470, however, […] than what was observed. To confirm the mass shift corresponds to modification of the active site cysteine with 3, treated AgTG3 was subjected to tryptic digestion and LC-MS/MS analysis. […] No other modified cysteines were detected in the protein. Taken together, the secondary in vitro assays of cross-linking and covalent modification confirm 1–3 as active site inhibitors of AgTG3.

T2 sequence (D2K8K8 entry or part of it): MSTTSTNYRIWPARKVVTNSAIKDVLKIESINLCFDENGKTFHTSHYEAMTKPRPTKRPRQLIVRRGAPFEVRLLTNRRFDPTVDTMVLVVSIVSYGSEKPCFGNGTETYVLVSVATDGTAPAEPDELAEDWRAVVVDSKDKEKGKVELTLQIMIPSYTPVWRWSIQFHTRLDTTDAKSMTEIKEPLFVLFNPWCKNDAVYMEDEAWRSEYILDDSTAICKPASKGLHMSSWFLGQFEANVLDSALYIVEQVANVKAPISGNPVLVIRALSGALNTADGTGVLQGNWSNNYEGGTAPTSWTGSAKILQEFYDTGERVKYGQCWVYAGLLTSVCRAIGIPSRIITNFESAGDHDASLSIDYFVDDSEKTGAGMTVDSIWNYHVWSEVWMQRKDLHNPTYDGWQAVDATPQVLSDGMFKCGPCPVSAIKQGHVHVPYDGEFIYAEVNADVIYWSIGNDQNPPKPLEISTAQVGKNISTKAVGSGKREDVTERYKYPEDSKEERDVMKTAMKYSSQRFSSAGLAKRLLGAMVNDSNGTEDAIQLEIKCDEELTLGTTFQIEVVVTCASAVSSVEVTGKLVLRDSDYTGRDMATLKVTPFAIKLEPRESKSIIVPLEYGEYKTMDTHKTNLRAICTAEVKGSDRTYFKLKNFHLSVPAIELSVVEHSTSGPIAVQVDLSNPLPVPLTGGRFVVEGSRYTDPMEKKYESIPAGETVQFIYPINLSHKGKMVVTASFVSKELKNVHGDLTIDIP

SMILES: O=C(N[C@@H](Cc1c[nH]c2ccccc12)C(=O)NC[C@@H]1CC(Br)=NO1)OCc1cnc2ccccc2c1
- Inhibition of caspase-1 (human caspase-1): no inhibition of the protease
- Inhibition of plugin-C cross-linking by AgTG3 (AgTG3 [1]): to a lesser extent
- Mass shift of intact AgTG3 after treatment (AgTG3 [2]; 100 μM overnight, ESI-MS): +465 m/z
- Mass shift of tryptic peptide containing AgTG3 active site cysteine (AgTG3 [2]; 100 μM overnight, tryptic digestion, LC-MS/MS): +469 amu
- Site of covalent modification of AgTG3 (AgTG3 [2]; y ion fragmentation, no other modified cysteines detected): specific modification of Cys 323
